# In publication PMC7377239, “Cardiovascular Effects of Polychlorinated Biphenyls and Their Major Metabolites” (Environmental Health Perspectives, 2020):
# Structures can show the parent of a compound that is named as a salt. Where two headings read alike, the source gives them in different places.
# Experiments:
# HUVECs = assay: High-content imaging cytotoxicity in HUVECs, 24 h; type: cell-based, human; settings: 24 hr; for minimal effective concentration: Homo sapiens, HUVEC, 24 h; for huvec.mito.24hr / huvec.mitoint.24hr / huvec.nma.24hr: HUVECs, 0.00 µM = 100.00
# Procedure, shortened: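 Point-of-departure values come from four-parameter logistic fits of vehicle-normalized (0.5% DMSO) imaging readouts, cutoff one SD of vehicle means, 100μM where no concentration–response. Cells: HUVEC monolayers, passages 1–5, treated 24 h at 37°C, 5% CO2, then Hoechst 33342/MitoTracker Orange/calcein AM stained, imaged at 10×.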
# [1] = test system: iCell cardiomyocytes (human iPSC-derived cardiomyocytes); assay: High-content imaging of cytotoxicity and mitochondrial integrity in iPSC-CMs; type: cell-based; settings: for minimal effective concentration: Homo sapiens, Cardiomyocyte, cardiomyocytes (cm); for cm.mii.90min / cm.mito.90min / cm.mii.24hrs / cm.mito.24hrs: 0.00 µM = 100.00
# Procedure, shortened: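 This assay measured cytotoxicity and mitochondrial integrity in iPSC cardiomyocytes held in 40μL maintenance medium. After compound exposure, a 2× staining solution with Hoechst 33342 (4μg/mL) and MitoTracker™ Orange (0.4μM) was applied for 15 min at 37°C. Cells were washed, fixed with 3.7% formaldehyde, imaged on DAPI and Cy3 channels, and scored in MetaXpress®.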
# [2] = cyto, read-out: POD huvec.cyto.24hr
# [3] = mito, read-out: POD huvec.mito.24hr
# [4] = mitoint, read-out: POD huvec.mitoint.24hr
# [5] = nma, read-out: POD huvec.nma.24hr
# [6] = tc, read-out: POD huvec.tc.24hr
# [7] = 1.5 h, cam, 90 min, read-out: POD cm.cam.90min
# [8] = 1.5 h, mii, 90 min, read-out: POD cm.mii.90min
# [9] = 1.5 h, mito, 90 min, read-out: POD cm.mito.90min
# [10] = 1.5 h, tc, 90 min, read-out: POD cm.tc.90min
# [11] = 24 h, cam, 24 hrs, read-out: POD cm.cam.24hrs
# [12] = 24 h, mii, 24 hrs, read-out: POD cm.mii.24hrs
# [13] = 24 h, mito, 24 hrs, read-out: POD cm.mito.24hrs
# [14] = 24 h, tc, 24 hrs, read-out: POD cm.tc.24hrs
smiles,measurement,setting,value
"Clc1cccc(-c2cccc(Cl)c2)c1 [PCB 11, 3,3′-Dichlorobiphenyl]",minimal effective concentration,HUVECs; [2],11.2 µM
same,minimal effective concentration,HUVECs; [3],9.68 µM
same,minimal effective concentration,HUVECs; [4],7.62 µM
same,minimal effective concentration,HUVECs; [5],9.3 µM
same,minimal effective concentration,HUVECs; [6],11.2 µM
same,minimal effective concentration,[1]; [7],18.6 µM
same,minimal effective concentration,[1]; [8],12.4 µM
same,minimal effective concentration,[1]; [9],14.2 µM
same,minimal effective concentration,[1]; [10],16.7 µM
same,minimal effective concentration,[1]; [11],35.2 µM
same,minimal effective concentration,[1]; [12],9.6 µM
same,minimal effective concentration,[1]; [13],33.1 µM
same,minimal effective concentration,[1]; [14],35.1 µM
"Clc1ccc(Cl)c(-c2c(Cl)ccc(Cl)c2Cl)c1Cl [(-)-PCB 136, 2,2′,3,3′,6,6′-hexachlorobiphenyl]",huvec.mito.24hr,HUVECs; concentration 0.01 µM,77.23
same,huvec.mitoint.24hr,HUVECs; concentration 0.01 µM,84.43
same,huvec.nma.24hr,HUVECs; concentration 0.01 µM,98.77
same,huvec.mito.24hr,HUVECs; concentration 0.10 µM,130.40
same,huvec.mitoint.24hr,HUVECs; concentration 0.10 µM,73.90
same,huvec.nma.24hr,HUVECs; concentration 0.10 µM,86.45
same,huvec.mito.24hr,HUVECs; concentration 1.00 µM,92.50
same,huvec.mitoint.24hr,HUVECs; concentration 1.00 µM,88.05
same,huvec.nma.24hr,HUVECs; concentration 1.00 µM,99.68
same,huvec.mito.24hr,HUVECs; concentration 10.00 µM,30.92
same,huvec.mitoint.24hr,HUVECs; concentration 10.00 µM,10.83
same,huvec.nma.24hr,HUVECs; concentration 10.00 µM,50.44
same,huvec.mito.24hr,HUVECs; concentration 100.00 µM,29.50
same,huvec.mitoint.24hr,HUVECs; concentration 100.00 µM,15.66
same,huvec.nma.24hr,HUVECs; concentration 100.00 µM,72.40
same,cm.mii.90min,[1]; 0.01 µM,112.68
same,cm.mito.90min,[1]; 0.01 µM,96.45
same,cm.mii.24hrs,[1]; 0.01 µM,102.85
same,cm.mito.24hrs,[1]; 0.01 µM,101.32
same,cm.mii.90min,[1]; 0.10 µM,114.32
same,cm.mito.90min,[1]; 0.10 µM,99.06
same,cm.mii.24hrs,[1]; 0.10 µM,75.71
same,cm.mito.24hrs,[1]; 0.10 µM,97.62
same,cm.mii.90min,[1]; 1.00 µM,108.72
same,cm.mito.90min,[1]; 1.00 µM,99.64
same,cm.mii.24hrs,[1]; 1.00 µM,98.56
same,cm.mito.24hrs,[1]; 1.00 µM,95.39
same,cm.mii.90min,[1]; 10.00 µM,109.00
same,cm.mito.90min,[1]; 10.00 µM,96.91
same,cm.mii.24hrs,[1]; 10.00 µM,82.93
same,cm.mito.24hrs,[1]; 10.00 µM,97.40
same,cm.mii.90min,[1]; 100.00 µM,5.98
same,cm.mito.90min,[1]; 100.00 µM,0.07
same,cm.mii.24hrs,[1]; 100.00 µM,87.76
same,cm.mito.24hrs,[1]; 100.00 µM,0.79
"Clc1cc(Cl)c(-c2cc(Cl)c(Cl)cc2Cl)cc1Cl [PCB 153, 2,2′,4,4′,5,5′-hexachlorobiphenyl]",minimal effective concentration,HUVECs; [2],0.0171 µM
same,minimal effective concentration,HUVECs; [3],0.75 µM
same,minimal effective concentration,HUVECs; [4],0.83 µM
same,minimal effective concentration,HUVECs; [5],1.01 µM
same,minimal effective concentration,HUVECs; [6],0.0171 µM
same,minimal effective concentration,[1]; [7],20.6 µM
same,minimal effective concentration,[1]; [8],100 µM
same,minimal effective concentration,[1]; [9],19.8 µM
same,minimal effective concentration,[1]; [10],23.2 µM
same,minimal effective concentration,[1]; [11],11.6 µM
same,minimal effective concentration,[1]; [12],39.9 µM
same,minimal effective concentration,[1]; [13],10.5 µM
same,minimal effective concentration,[1]; [14],11.1 µM
Oc1ccc(-c2ccc(Cl)cc2)cc1 [4'-OH-PCB 3],minimal effective concentration,HUVECs; [2],7.01 µM
same,minimal effective concentration,HUVECs; [3],3.9 µM
same,minimal effective concentration,HUVECs; [4],11.2 µM
same,minimal effective concentration,HUVECs; [5],6.91 µM
same,minimal effective concentration,HUVECs; [6],7.01 µM
same,minimal effective concentration,[1]; [7],12.4 µM
same,minimal effective concentration,[1]; [8],16 µM
same,minimal effective concentration,[1]; [9],11.5 µM
same,minimal effective concentration,[1]; [10],11.3 µM
same,minimal effective concentration,[1]; [11],32.3 µM
same,minimal effective concentration,[1]; [12],15.4 µM
same,minimal effective concentration,[1]; [13],37.2 µM
same,minimal effective concentration,[1]; [14],38.4 µM
O=S(=O)(O)Oc1cc(-c2ccccc2)ccc1Cl [3-PCB 3 sulfate],minimal effective concentration,HUVECs; [2],100 µM
same,minimal effective concentration,HUVECs; [3],100 µM
same,minimal effective concentration,HUVECs; [4],100 µM
same,minimal effective concentration,HUVECs; [5],100 µM
same,minimal effective concentration,HUVECs; [6],100 µM
same,minimal effective concentration,[1]; [7],100 µM
same,minimal effective concentration,[1]; [8],100 µM
same,minimal effective concentration,[1]; [9],100 µM
same,minimal effective concentration,[1]; [10],100 µM
same,minimal effective concentration,[1]; [11],100 µM
same,minimal effective concentration,[1]; [12],22.8 µM
same,minimal effective concentration,[1]; [13],100 µM
same,minimal effective concentration,[1]; [14],100 µM
O=S(=O)(O)Oc1ccc(-c2cccc(Cl)c2)cc1Cl [4-PCB 11 sulfate],minimal effective concentration,HUVECs; [2],48.8 µM
same,minimal effective concentration,HUVECs; [3],45.1 µM
same,minimal effective concentration,HUVECs; [4],10.8 µM
same,minimal effective concentration,HUVECs; [5],2.98 µM
same,minimal effective concentration,HUVECs; [6],48.8 µM
same,minimal effective concentration,[1]; [7],100 µM
same,minimal effective concentration,[1]; [8],100 µM
same,minimal effective concentration,[1]; [9],100 µM
same,minimal effective concentration,[1]; [10],100 µM
same,minimal effective concentration,[1]; [11],5.91 µM
same,minimal effective concentration,[1]; [12],49.2 µM
same,minimal effective concentration,[1]; [13],7.07 µM
same,minimal effective concentration,[1]; [14],6.38 µM
Oc1ccc(-c2cccc(Cl)c2)cc1Cl [4-OH-PCB 11],minimal effective concentration,HUVECs; [2],1.37 µM
same,minimal effective concentration,HUVECs; [3],1.2 µM
same,minimal effective concentration,HUVECs; [4],5.43 µM
same,minimal effective concentration,HUVECs; [5],0.99 µM
same,minimal effective concentration,HUVECs; [6],1.37 µM
same,minimal effective concentration,[1]; [7],27.7 µM
same,minimal effective concentration,[1]; [8],32.7 µM
same,minimal effective concentration,[1]; [9],40.1 µM
same,minimal effective concentration,[1]; [10],36.2 µM
same,minimal effective concentration,[1]; [11],8.57 µM
same,minimal effective concentration,[1]; [12],43.2 µM
same,minimal effective concentration,[1]; [13],7.94 µM
same,minimal effective concentration,[1]; [14],8.62 µM
